The text below walks through data of patent US12202821B2, “Herbicidal compounds” (SYNGENTA CROP PROTECTION AG, priority 2019, dated 2025).

Common to all, as to assay type: in vivo
Experiment [1] concerns IPOHE. The experiment in a line: Post-emergence biological efficacy. As to conditions: Ipomoea hederacea, 312 h, evaluated after 13 days, read-out: damage to plant (100=total damage to plant; 0=no damage to plant), IPOHE. The procedure, abridged: (§1)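 Glasshouse conditions (24/16° C. day/night, 14 h light, 65% humidity) apply both before and after treatment. Seedlings are sprayed at 8 days with compound in 50:50 acetone/water plus 0.5% Tween 20. Plant damage is assessed after 13 days, 100 meaning total.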

The subject of the next experiment is DIGSA. The experiment in a line: Post-emergence biological efficacy. The settings on record: Digitaria sanguinalis, 312 h, evaluated after 13 days, read-out: damage to plant (100=total damage to plant; 0=no damage to plant), DIGSA. The procedure, abridged: as §1
Experiment [2] relates to EPHHL. The experiment in a line: Post-emergence biological efficacy. The settings on record: 312 h, evaluated after 13 days, read-out: damage to plant (100=total damage to plant; 0=no damage to plant), EPHHL. Summed up: as §1
Experiment [3] has as its system ECHCG. The experiment in a line: Post-emergence biological efficacy. As to conditions: Echinochloa crus-galli, 312 h, evaluated after 13 days, read-out: damage to plant (100=total damage to plant; 0=no damage to plant), ECHCG. Summed up: as §1
Experiment [4] concerns SETFA. The experiment in a line: Post-emergence biological efficacy. The settings on record: Setaria faberi, 312 h, evaluated after 13 days, read-out: damage to plant (100=total damage to plant; 0=no damage to plant), SETFA. Summed up:
as §1

A further experiment deals with ELEIN. The experiment in a line: Post-emergence biological efficacy. The settings on record: 312 h, evaluated after 13 days, read-out: damage to plant (100=total damage to plant; 0=no damage to plant), ELEIN. Summed up:
as §1

The next experiment relates to CHEAL. The experiment is described as follows: Post-emergence biological efficacy. As to conditions: Chenopodium album, 312 h, evaluated after 13 days, read-out: damage to plant (100=total damage to plant; 0=no damage to plant), CHEAL. Summed up:
as §1

For experiment [5], the system named is LOLPE. The experiment in a line: Post-emergence biological efficacy. The settings on record: 312 h, evaluated after 13 days, read-out: damage to plant (100=total damage to plant; 0=no damage to plant), LOLPE. Summed up:
as §1

Experiment [6] concerns AMAPA. The experiment in a line: Post-emergence biological efficacy. As to conditions: 312 h, evaluated after 13 days, read-out: damage to plant (100=total damage to plant; 0=no damage to plant), AMAPA. Summed up: as §1
In experiment [7] the test system is IPOHE. The experiment in a line: Pre-emergence biological efficacy. As to conditions: Ipomoea hederacea, 312 h, evaluated after 13 days, read-out: damage to plant (100=total damage to plant; 0=no damage to plant), IPOHE. Summed up:
(§2)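 Pre-emergence pot test: seeds sown in standard soil, grown one day in glasshouse (24/16 °C day/night, 14 h light, 65% humidity), then sprayed with compound formulated in acetone/water (50:50) with 0.5% Tween 20. Damage scored after 13 days on 0–100 scale (100 = total damage).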

Experiment [8] deals with EPHHL. The experiment in a line: Pre-emergence biological efficacy. The settings on record: 312 h, evaluated after 13 days, read-out: damage to plant (100=total damage to plant; 0=no damage to plant), EPHHL. The procedure, abridged:
as §2

Experiment [9] deals with ECHCG. The experiment is described as follows: Pre-emergence biological efficacy. The settings on record: Echinochloa crus-galli, 312 h, evaluated after 13 days, read-out: damage to plant (100=total damage to plant; 0=no damage to plant), ECHCG. The procedure, abridged: as §2
Experiment [10] has as its system SETFA. The experiment is described as follows: Pre-emergence biological efficacy. The settings on record: Setaria faberi, 312 h, evaluated after 13 days, read-out: damage to plant (100=total damage to plant; 0=no damage to plant), SETFA. Summed up: as §2
Experiment [11] has as its system LOLPE. The experiment in a line: Pre-emergence biological efficacy. As to conditions: 312 h, evaluated after 13 days, read-out: damage to plant (100=total damage to plant; 0=no damage to plant), LOLPE. The procedure, abridged: as §2
Experiment [12] concerns AMAPA. The experiment is described as follows: Pre-emergence biological efficacy. The settings on record: 312 h, evaluated after 13 days, read-out: damage to plant (100=total damage to plant; 0=no damage to plant), AMAPA. Summed up: as §2

With `CC(=O)C1(C)CC(c2cc(-n3c(=O)n(C)c(=S)n(C)c3=O)c(F)cc2Cl)=NO1` (stereo not drawn) [Compound 290, 3-[5-(5-Acetyl-5-methyl-4H-isoxazol-3-yl)-4-chloro-2-fluoro-phenyl]-1,5-dimethyl-6-thioxo-1,3,5-triazinane-2,4-dione], the pest or weed control at 250 g/ha was 100% in the experiment with IPOHE [1]; 100% in the experiment with DIGSA; 100% in the experiment on EPHHL [2]; 90% in the experiment on ECHCG [3]; 90% with SETFA [4]; 100% with ELEIN. Also, the pest or weed control at 250 g/ha was 100% in the experiment with CHEAL; 90% in the experiment with LOLPE [5]; 100% in the experiment with AMAPA [6]; 100% with IPOHE [7]; 100% with EPHHL [8]; 90% with ECHCG [9]. Besides, the pest or weed control at 250 g/ha was 100% in the experiment on SETFA [10], 90% with LOLPE [11] and 100% in the experiment with AMAPA [12].

With `CO/N=C(\C)C1(C)CC(c2cc(-n3c(=O)n(C)c(=S)n(C)c3=O)c(F)cc2Cl)=NO1` (stereo not drawn) [Compound 293], the pest or weed control at 250 g/ha in the experiment on IPOHE [1] is 100%; in the experiment with DIGSA, 100%; with EPHHL [2], 100%; with ECHCG [3], 30%; in the experiment with SETFA [4], 90%; in the experiment with ELEIN, 90%. For the same compound, the pest or weed control at 250 g/ha came out at 100% in the experiment on CHEAL; 60% with LOLPE [5]; 100% in the experiment on AMAPA [6]; 50% in the experiment with IPOHE [7]; 100% with EPHHL [8]; 90% with ECHCG [9]. Besides, the pest or weed control at 250 g/ha in the experiment on SETFA [10] came out at 100%; with LOLPE [11], 90%; with AMAPA [12], 100%.

Turning to `CC(=NO)C1(C)CC(c2cc(-n3c(=O)n(C)c(=S)n(C)c3=O)c(F)cc2Cl)NO1` (stereo not drawn) [Compound 296, 3-[4-Chloro-2-fluoro-5-[5-[N-hydroxy-C-methyl-carbonimidoyl]-5-methyl-isoxazolidin-3-yl]phenyl]-1,5-dimethyl-6-thioxo-1,3,5-triazinane-2,4-dione], the pest or weed control at 250 g/ha in the experiment on IPOHE [1] was determined as 90%; in the experiment with DIGSA, 70%; in the experiment on EPHHL [2], 80%; with ECHCG [3] it was 30%; with SETFA [4], 80%; in the experiment on ELEIN, 90%. In addition, the pest or weed control at 250 g/ha came out at 100% in the experiment with CHEAL; 70% in the experiment on LOLPE [5]; 100% in the experiment with AMAPA [6]; 90% with IPOHE [7]; 90% in the experiment with EPHHL [8]; 80% in the experiment with ECHCG [9]. The pest or weed control at 250 g/ha in the experiment with SETFA [10] was found to be 100%; with LOLPE [11], 80%; in the experiment with AMAPA [12], 100%.

Turning to `COC(=O)CO/N=C(\C)C1(C)CC(c2cc(-n3c(=O)n(C)c(=S)n(C)c3=O)c(F)cc2Cl)=NO1` (stereo not drawn) [Compound 299, methyl 2-[1-[3-[2-chloro-5-(3,5-dimethyl-2,6-dioxo-4-thioxo-1,3,5-triazinan-1-yl)-4-fluoro-phenyl]-5-methyl-4H-isoxazol-5-yl]ethylideneamino]oxyacetate], the pest or weed control at 250 g/ha stood at 90% in the experiment on IPOHE [1]; 80% in the experiment on DIGSA; 90% in the experiment with EPHHL [2]; 100% in the experiment on ECHCG [3]; 100% in the experiment on SETFA [4]; 90% with ELEIN. The pest or weed control at 250 g/ha was determined as 100% in the experiment on CHEAL; 90% with LOLPE [5]; 100% in the experiment with AMAPA [6]; 80% in the experiment on IPOHE [7]; 90% in the experiment with EPHHL [8]; 0% in the experiment on ECHCG [9]. In addition, the pest or weed control at 250 g/ha amounted to 60% in the experiment on SETFA [10], 60% in the experiment on LOLPE [11] and 100% in the experiment with AMAPA [12].

Regarding `CN(C)S(=O)(=O)NC(=O)C1(C)CC(c2cc(-n3c(=O)n(C)c(=S)n(C)c3=O)c(F)cc2Cl)=NO1` (stereo not drawn) [Compound 305, 3-[2-Chloro-5-(3,5-dimethyl-2,6-dioxo-4-thioxo-1,3,5-triazinan-1-yl)-4-fluoro-phenyl]-N-(dimethylsulfamoyl)-5-methyl-4H-isoxazole-5-carboxamide], the pest or weed control at 250 g/ha in the experiment with IPOHE [1], with DIGSA, with EPHHL [2], in the experiment on ECHCG [3], in the experiment with SETFA [4] and in the experiment with ELEIN was 100% in each case. The pest or weed control at 250 g/ha was determined as 100% with CHEAL; 100% with LOLPE [5]; 100% in the experiment with AMAPA [6]; 80% in the experiment on IPOHE [7]; 60% in the experiment on EPHHL [8]; 30% in the experiment on ECHCG [9]. Further, the pest or weed control at 250 g/ha stood at 90% in the experiment on SETFA [10], 30% in the experiment with LOLPE [11] and 100% in the experiment on AMAPA [12].

In the case of `Cn1c(=S)n(C)c(=O)n(-c2cc(C3=NOC(C)(C(N)=O)C3)c(Cl)cc2F)c1=O` (stereo not drawn) [Compound 308, 3-[2-chloro-5-(3,5-dimethyl-2,6-dioxo-4-thioxo-1,3,5-triazinan-1-yl)-4-fluoro-phenyl]-5-methyl-4H-isoxazole-5-carboxamide], the pest or weed control at 250 g/ha in the experiment with IPOHE [1] is 100%; in the experiment on DIGSA, 100%; in the experiment on EPHHL [2] it was 90%; in the experiment on ECHCG [3], 100%; with SETFA [4], 100%; in the experiment on ELEIN it was 100%. Besides, the pest or weed control at 250 g/ha in the experiment on CHEAL worked out at 100%; in the experiment on LOLPE [5], 90%; in the experiment on AMAPA [6], 100%; in the experiment with IPOHE [7], 50%; in the experiment on EPHHL [8] it was 80%; in the experiment on ECHCG [9], 10%. Besides, the pest or weed control at 250 g/ha was determined as 90% with SETFA [10], 60% with LOLPE [11] and 100% in the experiment with AMAPA [12].

For the compound `COC(=O)C1(OC)CC(c2cc(-n3c(=O)n(C)c(=S)n(C)c3=O)c(F)cc2Cl)=NO1` (stereo not drawn) [Compound 311, Methyl 3-[2-chloro-5-(3,5-dimethyl-2,6-dioxo-4-thioxo-1,3,5-triazinan-1-yl)-4-fluoro-phenyl]-5-methoxy-4H-isoxazole-5-carboxylate], the pest or weed control at 250 g/ha with IPOHE [1] stood at 90%; in the experiment on DIGSA it was 80%; in the experiment on EPHHL [2], 90%; in the experiment with ECHCG [3], 90%; in the experiment with SETFA [4] it was 100%; in the experiment with ELEIN, 90%. Also, the pest or weed control at 250 g/ha in the experiment on CHEAL was 90%; with LOLPE [5] it was 50%; with AMAPA [6] it was 90%; in the experiment with IPOHE [7], 70%; in the experiment on EPHHL [8], 50%; in the experiment on ECHCG [9], 10%. Moreover, the figures for the pest or weed control at 250 g/ha in the experiment on SETFA [10], in the experiment with LOLPE [11] and with AMAPA [12] were 90%, 10% and 100%, respectively.
